Experimental data as given in PubChem BioAssay AID1421 (Emory University Molecular Libraries Screening Center, 2008).
Activity calls are given as the source filed them. No rule for the calls is given here.

biological target: Prostaglandin E2 receptor EP2 subtype (Homo sapiens) (UniProt P43116); assay: EP2 receptor modulators, dose response, cell-based, human EP2, PGE2 EC50 shift (AID 1421); conditions: EP2-expressing cells, PGE2 EC50 shift by compound
Sequence (P43116 whole entry, looked up): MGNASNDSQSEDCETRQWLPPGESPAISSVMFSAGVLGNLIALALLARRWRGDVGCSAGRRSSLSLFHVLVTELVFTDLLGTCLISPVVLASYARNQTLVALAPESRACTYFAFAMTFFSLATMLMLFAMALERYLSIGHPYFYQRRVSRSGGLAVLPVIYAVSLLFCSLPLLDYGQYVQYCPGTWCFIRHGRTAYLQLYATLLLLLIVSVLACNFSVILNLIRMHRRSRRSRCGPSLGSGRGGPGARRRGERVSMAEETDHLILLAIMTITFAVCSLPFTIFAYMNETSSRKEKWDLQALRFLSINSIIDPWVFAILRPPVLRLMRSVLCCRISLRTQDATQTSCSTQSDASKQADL

Compound | outcome
COc1ccc(-c2cc(-c3ccccc3)nc(N3CCCC3)n2)cc1OC | active
CC(C)Oc1nc(-c2ccccc2O)nc2ccccc12 | active
CCC(=O)N(CCC(Cc1ccccc1)c1ccco1)Cc1ccco1 (stereo not given) | active
Cc1ccc(O)c(C2=Nc3ccccc3N=C(c3cccs3)C2)c1 | active
CC(C)OC(=O)c1c(NC(=O)CCn2nnc3ccccc32)sc2c1CCCC2 | active
COc1ccc2c(c1)c(=O)c(Br)c(C)n2Cc1ccccc1 | active
Cc1ccc(C)c(NC(=S)N(Cc2ccco2)C(C)c2cccs2)c1 (stereo not given) | active
COc1cc(-c2nc(-c3cccc(C)c3)no2)cc(OC)c1OC | active

same assay, conditions: EP2-expressing cells, PGE2 EC50 shift by compound; measured here: PGE2 EC50 at 6.7 uM compound

Compound | PGE2 EC50 with compound [nM]
COC(=O)c1nc(NC(=O)C(C)(C)C)n[nH]1 | 2.41
CCOC(=O)C1=C(N)OC2=C(C(=O)CC(C)(C)C2)C1c1ccc(CC)s1 (stereo not given) | 0.96
O=C(CN1CCCCCC1)Nc1ccccc1Oc1ccccc1 | 0.96
Cc1ccccc1S(=O)(=O)c1c(C)cc(C)n(C(C)C)c1=O | 0.83
COCCOC(=O)c1c(C)oc2ccc(OCc3ccccc3)cc12 | 1.04
CC(C)CCn1c(-c2nonc2N)nc2ccccc21 | 1.49
Cc1ccc(-n2nc3c(c2NC(=O)c2ccc(Br)o2)CSC3)c(C)c1 | 1.36
Cc1ccc(-n2c(SCC(=O)Nc3ccc4c(c3)OCO4)nnc2-c2ccoc2C)cc1 | 1.18
COc1ccc(-c2cc(-c3ccccc3)nc(N3CCCC3)n2)cc1OC | 1.12
CCOc1nc(C)cc(C)c1S(=O)(=O)c1ccc(Cl)cc1 | 1.56
CC1CCN(c2ccccc2NC(=O)c2ccc(F)cc2)CC1 | 0.69
COc1ccccc1-c1nnc2sc(-c3cc4ccccc4o3)nn12 | 6.03
COC(=O)c1c(NC(=O)c2ccc(Br)s2)sc2c1CCC2 | 1.14
Cc1ccccc1NC(=O)/C(=C/c1ccccc1)c1ccccc1 | 1.23
COc1ccc(/C=C(\C#N)C(N)=O)cc1OC | 1.31
COc1cc(OC)c(OC)cc1CNCCc1ccc(OC)c(OC)c1 | 1.3
Cc1cccc(OCC(=O)Nc2ccccc2-c2ccccc2)c1 | 0.63
CCOC(=O)C1=C(C)NC(C)=C(C(=O)OC)C1c1cccc(Cl)c1Cl (stereo not given) | 0.69
Cc1ccc(NCc2n[nH]c(=S)n2Cc2ccccc2)cc1Cl | 1.2
S=c1[nH]nc(C2CCCCC2)n1Cc1ccccc1 | 1.02
CC(C)Oc1nc(-c2ccccc2O)nc2ccccc12 | 1.01
COc1cc(-c2noc(-c3cccc(Cl)c3)n2)cc(OC)c1OC | 1.11

Compound | PGE2 EC50 with compound [nM]
CSc1nc(Oc2ccccc2)c2sccc2n1 | 0.93
Cc1cc2ccccn2c1C(=O)c1ccc(Cl)cc1 | 1.24
Cc1cc(SCCC(=O)O)nc2c(C)cccc12 | 1.01
Cc1ccc(-c2nc3ccccc3nc2Cl)cc1 | 0.49
c1ccc(CCc2ccccc2-c2nc(-c3ccccn3)no2)cc1 | 0.32
COc1ccc(N=Cc2cc(Cc3ccccc3Cl)cc([N+](=O)[O-])c2O)cc1OC | 0.65
CCOC(=O)CSc1nc(Cc2ccccc2)nc2ccccc12 | 1.15
COC(=O)C1C(c2ccccc2)C(C(=O)OCc2ccco2)C1c1ccccc1 (stereo not given) | 2.61
CCC(=O)N(CCC(Cc1ccccc1)c1ccco1)Cc1ccco1 (stereo not given) | 0.86
O=C(O)COc1ccc2occ(C(=O)c3ccccc3)c2c1 | 0.86
Cc1ccc(/C=C/c2nc3ccccc3c(=O)n2CCc2ccccc2)cc1 | 1.15
CCN(CCO)c1ncnc2c1sc1nc(C(C)C)c3c(c12)CC(C)(C)OC3 | 0.69
O=C1C2C(c3ccccc3)C=CC(c3ccccc3)C2C(=O)N1c1ccncc1 (stereo not given) | 0.65
Cc1ccc(O)c(C2=Nc3ccccc3N=C(c3cccs3)C2)c1 | 1.17
CCOC(=O)c1c(NC(=O)CC(C)C)sc(C(C)=O)c1C | 1.25
CCOC(=O)c1c(CC(C)C)csc1N | 1.47
O=C(c1ccccc1)N1N=C(c2ccccc2)CC1c1ccccc1O (stereo not given) | 1.14
CC(C)Oc1ccc(Cc2n[nH]c(=S)n2Cc2ccccc2)cc1Cl | 1.25
COC(=O)c1[nH]c2ccccc2c1NS(=O)(=O)c1ccc(F)c(C)c1 | 0.88
CN(CC(=O)Nc1ccccc1-c1ccccc1)C1CCCCC1 | 0.51
O=C(CSCc1c(Cl)cccc1Cl)Nc1ccccc1-c1ccccc1 | 1.36
CC1CCc2cc(F)cc3c(O)c(C(=O)NCc4ccco4)c(=O)n1c23 (stereo not given) | 0.56

Compound | PGE2 EC50 with compound [nM]
CCOC(=O)C1CCCN(C(=O)c2ccc(C)cc2O)C1 (stereo not given) | 1.44
Cc1ccc(OCc2n[nH]c(=S)n2Cc2ccccc2)cc1 | 1.17
O=C(O)CSc1cc(-c2ccccc2)nc2ccccc12 | 2.55
COc1cc(/C=C/c2ccc3cccc([N+](=O)[O-])c3n2)ccc1OCC(=O)O | 1.64
CCOP(=O)(OCC)c1nc(-c2ccc(C)cc2)oc1NCc1ccccc1 | 0.83
CCOc1cc(S(=O)(=O)NCCc2cccc(C)c2)c(OCC)cc1-n1cnnn1 | 1.21
CCCCOc1ccc(-c2nnc(-c3ccco3)o2)cc1 | 1.18
N#Cc1c(N)nc2c3c(sc(=N)c2c1N)NC(=O)CC3c1c(F)cccc1Cl (stereo not given) | 0.74
O=C(OCc1ccc(Cl)cc1)c1ccccc1C(=O)c1ccccc1 | 1.02
O=S(=O)(c1ccc(F)cc1)c1snnc1-c1ccccc1 | 0.89
CN(C)Cc1ccc(F)cc1Sc1cc(Cl)ccc1Cl | 0.77
Fc1ccc(-c2cc(-c3ccccc3)nc(-n3cccn3)n2)cc1 | 1.63
COc1ccc2ccc(=O)oc2c1CC=C(C)C | 1.13
CCOC(=O)c1c(NC(=O)CN2CCN(C(=O)c3ccco3)CC2)sc2c1CCCC2 | 0.85
Cc1cc2ccccc2nc1SCC(=O)NC1CCCCC1 | 2.75
CCCOP(=O)(OCCC)C(Nc1cccc(C(F)(F)F)c1)c1ccc(C)cc1 (stereo not given) | 1.37
CC(C)OC(=O)c1c(NC(=O)CCn2nnc3ccccc32)sc2c1CCCC2 | 1
C[C@@H]1CC[C@H]2C(C)(C)C3CC12CC[C@@]3(C)O (stereo not given in full) | 0.32
CCOC(=O)C1CCN(c2c(C(=O)c3ccccc3)cnc3ccc(CC)cc23)CC1 | 0.91
O=C(C(c1ccccc1)c1ccccc1)N1CCCc2ccccc21 | 0.71
Nc1[nH]n2c(=O)c3c(nc2c1N=Nc1ccccc1)CCCC3 | 2.09
O=C(O)c1ccc(-c2ccccc2C(F)(F)F)o1 | 0.92

Compound | PGE2 EC50 with compound [nM]
C=CCC(NCc1ccccc1)c1ccc(Cl)cc1 (stereo not given) | 1.14
O=C(O)CSc1ccc2ccccc2n1 | 2.79
C=C(C)Cn1c(C)cc(C)c(S(=O)(=O)c2ccc(C)cc2)c1=O | 1.04
c1cncc(-c2nc(N3CCCCCC3)c3ccccc3n2)c1 | 0.91
CCN(CC)S(=O)(=O)c1c(OC)cc(C)c(Cl)c1C | 2.56
Nc1c(C(=O)NCc2ccccc2)c2nc3ccccc3nc2n1CCCN1CCOCC1 | 1.09
c1ccc(Nc2nc(N3CCNCC3)nc(N3CCOCC3)n2)cc1 | 1.46
CCOC(=O)c1c(NC(=O)c2cccnc2)sc(C)c1C | 1.25
CCOc1ccc(-c2nnc3n2N=C(c2ccc(OC)cc2)CS3)cc1 | 0.5
CC/C(=C\C1CCCCC1)C(NP(=O)(c1ccccc1)c1ccccc1)c1ccccc1 (stereo not given) | 1.01
O=C(Nc1nc(-c2cccs2)c(-c2ccccc2)s1)c1ccco1 | 2.42
Cc1sc(NC(=O)CN2CCOCC2)c(C(=O)c2ccccc2)c1C | 1.18
CCCn1c(=O)[nH]c(=O)c2c1nc(-c1ccccc1OC(F)F)n2CCOC | 1.08
O=S(=O)(c1ccccc1)c1nc(-c2ccco2)oc1N1CCCCCC1 | 1.21
COc1ccc2c(c1)c(=O)c(Br)c(C)n2Cc1ccccc1 | 0.83
O=C(O)c1cc2cc(F)ccc2[nH]1 | 0.93
CCc1nc2c(cnn2-c2ccc(Cl)cc2)c(=O)n1-c1ccc(OC)cc1 | 0.85
COc1ccc(C(=O)COC(=O)C(CCSC)NS(=O)(=O)c2ccc(Cl)cc2)cc1 (stereo not given) | 2.2
COc1ccc(C2=Nn3c(nnc3C3CCCCC3)SC2)cc1OC | 1.58
CCOC(=O)c1c(NC(=O)CN(CC)CC)sc2c1CCN(C(=O)OCC)C2 | 1.34
Cc1ccc(C)c(NC(=S)N(Cc2ccco2)C(C)c2cccs2)c1 (stereo not given) | 0.7
Cc1ccc(O)c(N=Cc2cc(Cc3ccccc3)cc([N+](=O)[O-])c2O)c1 | 1.07

Compound | PGE2 EC50 with compound [nM]
O=C(CSc1nc2cc(Cl)ccc2s1)N1CCCc2ccccc21 | 1.09
CCn1c(-c2ccccc2)c(C(=O)CCl)c2ccccc21 | 1
Cc1ccn2c(Nc3ccccc3C)c(-c3ccccn3)nc2c1 | 0.73
CCN(Cc1cc(Cl)cc(C)c1O)Cc1c(O)ccc2ccccc12 | 0.84
CCC(=O)N(CC)c1nc(-c2cc(OC)ccc2OC)cs1 | 1.09
FC(F)(F)c1cc(CO[C@H]2CCCN[C@H]2c2ccccc2)cc(C(F)(F)F)c1 | 1.59
COc1cc(-c2nc(-c3cccc(C)c3)no2)cc(OC)c1OC | 1.14
CCC(=O)O[C@H]1CCC2C3CCC4=CC(=O)CC[C@]4(C)C3CC[C@@]21C (stereo not given in full) | 0.76
O=c1[nH]c(CSc2ncc(-c3ccc(F)cc3)n2Cc2ccco2)nc2ccccc12 | 0.71
CSc1nnc(-c2cc3c(s2)-c2ccccc2CC3)o1 | 1.15
CCOC(=O)c1c(NC(=O)c2cccs2)sc2c1CCCC2 | 0.81
CC1(C)Cc2c(C#N)c(N3CCCC3)nc(-c3ccco3)c2CO1 | 2.33
N#CC1(Cc2ccccc2Cl)c2ccccc2C=CN1C(=O)c1ccccc1 (stereo not given) | 1.54
CCCCCCCCCc1ccc(O)cc1 | 0.74
CCOC(=O)N1CCC(=C2c3ccc(Cl)cc3CCc3cccnc32)CC1 | 0.95
CCCCNc1nc(N(C)c2ccccc2)nc(-n2ccnc2)n1 | 1.11
CC(=O)c1sc2nc(-c3ccc(C)cc3)c3c(c2c1N)CCCC3 | 2.47
FC(F)(F)c1nc(=S)c2ccccc2[nH]1 | 2.84
NC(N)=Nc1nc(CSCC/C(N)=N/S(N)(=O)=O)cs1 | 0.78
